Experimental findings from article PMC10749220, “Development of a Rapid in vivo Assay to Evaluate the Efficacy of IRE1-specific Inhibitors of the Unfolded Protein Response Using Medaka Fish” (Cell Structure and Function, 2019) are described below.

The assay addresses T1, IRE1α (Homo sapiens, UniProt O75460).
T1 construct: gene ERN1; His-tagged cytoplasmic region of IRE1α (IRE1-C), expressed in SF9 insect cells
As to the kind of experiment: in vitro XBP1 mRNA cleavage assay with purified IRE1-C, urea-PAGE, SYBR Gold stain. The assay is classed as biochemical.

T1 sequence (O75460 465-977 limits assumed): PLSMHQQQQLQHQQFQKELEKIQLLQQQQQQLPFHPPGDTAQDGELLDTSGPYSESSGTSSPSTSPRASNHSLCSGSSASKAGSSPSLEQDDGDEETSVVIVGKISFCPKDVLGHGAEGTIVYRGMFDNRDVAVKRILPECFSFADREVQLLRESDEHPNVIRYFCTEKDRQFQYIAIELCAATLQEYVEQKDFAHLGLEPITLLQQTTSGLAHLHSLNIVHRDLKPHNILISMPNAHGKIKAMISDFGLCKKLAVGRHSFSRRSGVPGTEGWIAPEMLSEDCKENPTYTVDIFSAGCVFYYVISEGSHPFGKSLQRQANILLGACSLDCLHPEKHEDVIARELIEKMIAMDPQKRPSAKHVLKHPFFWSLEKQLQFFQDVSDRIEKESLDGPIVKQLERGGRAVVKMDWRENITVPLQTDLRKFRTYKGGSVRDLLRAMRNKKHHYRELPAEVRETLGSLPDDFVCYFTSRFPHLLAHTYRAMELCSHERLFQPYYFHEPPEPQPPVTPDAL

A word on the IC50: it is the point on the concentration scale where inhibition reaches its midpoint. A lower IC50 goes with greater potency. Compound `Cc1cc(=O)oc2c(C=O)c(O)ccc12` [4μ8C] yielded a half-inhibitory concentration (IC50) of 0.0741 µM. The compound `Oc1ccc(/C=C/c2ccc(/C=C/c3ccc(O)cc3)c(Br)c2)cc1` [K114] displayed an IC50 of 30.8 µM.
